The target in experiment [1] is T1, Oxysterols receptor LXR-beta (Homo sapiens, UniProt P55055).
T1 sequence (P55055 whole entry): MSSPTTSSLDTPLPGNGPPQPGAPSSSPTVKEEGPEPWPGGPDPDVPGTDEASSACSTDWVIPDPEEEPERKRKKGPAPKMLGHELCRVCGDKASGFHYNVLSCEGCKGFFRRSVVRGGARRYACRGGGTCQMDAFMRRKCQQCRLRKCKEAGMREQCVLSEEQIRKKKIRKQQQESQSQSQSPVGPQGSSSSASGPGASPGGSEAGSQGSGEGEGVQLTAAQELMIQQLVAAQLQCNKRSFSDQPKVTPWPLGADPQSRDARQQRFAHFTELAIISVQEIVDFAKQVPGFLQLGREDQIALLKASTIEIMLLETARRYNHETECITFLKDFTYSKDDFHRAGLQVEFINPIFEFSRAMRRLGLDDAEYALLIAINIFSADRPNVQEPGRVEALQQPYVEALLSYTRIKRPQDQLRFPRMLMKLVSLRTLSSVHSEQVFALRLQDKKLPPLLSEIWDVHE
The experiment is described as follows: Scintillation Proximity Assay. On the procedure:
(§1) SPA assays were run in displacement mode using 30 nM [3H]-GW3965. Ligands were tested in 12-point dose-response curves starting at 20 uM. IC50 values were determined from dose-response and competition curves, which were generated by nonlinear regression analysis using GraphPad Prism.

Experiment [2] has as its target T2, Oxysterols receptor LXR-alpha (Homo sapiens, UniProt Q13133).
T2 sequence (Q13133 whole entry): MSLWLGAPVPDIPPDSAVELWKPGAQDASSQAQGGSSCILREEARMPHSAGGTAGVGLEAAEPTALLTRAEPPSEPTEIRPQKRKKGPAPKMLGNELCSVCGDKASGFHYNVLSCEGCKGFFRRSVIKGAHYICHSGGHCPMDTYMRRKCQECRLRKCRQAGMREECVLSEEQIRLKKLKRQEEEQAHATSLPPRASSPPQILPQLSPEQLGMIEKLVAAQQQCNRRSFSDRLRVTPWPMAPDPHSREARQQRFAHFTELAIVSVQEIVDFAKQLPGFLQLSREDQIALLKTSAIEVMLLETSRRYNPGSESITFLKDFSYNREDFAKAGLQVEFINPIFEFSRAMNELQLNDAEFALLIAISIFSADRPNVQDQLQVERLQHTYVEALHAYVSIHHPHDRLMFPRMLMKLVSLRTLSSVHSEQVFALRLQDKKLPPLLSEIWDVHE
The experiment is described as follows: Scintillation Proximity Assay. On the procedure: as §1
(In a scintillation proximity assay essentially only radioactivity close to the scintillant gives light.)

Experiment [3] concerns the target T1, Oxysterols receptor LXR-beta. The experiment is described as follows: Fluorescence-Resonance Energy Transfer Assay. The conditions noted are these: pH 7.2; 37 °C. On the procedure: (§2) FRET-based co-activator recruitment assay measures agonist activities in a 384-well plate format. Reaction mixture containing His-tagged hLXR, biotinylated SRC-1 peptide, Europiumlabeled anti-His antibody, and allophycocyaninlabeled streptavidin (Prozyme) was prepared. Ligands were tested in 12-point dose-response curves, and FRET was read on an AnalystGT (Molecular Devices).

For experiment [4], the target named is T2, Oxysterols receptor LXR-alpha. The experiment in a line: Fluorescence-Resonance Energy Transfer Assay. The conditions noted are these: pH 7.2; 37 °C. On the procedure:
as §2

SMILES strings stand for the structures.

In the case of `O=C(O)Cc1cccc(OCCCN(Cc2cccc(C(F)(F)F)c2Cl)CC(c2ccccc2)c2ccccc2)c1` [2-{3-[3-({[2-chloro-3-(trifluoromethyl)phenyl]methyl}(2,2-diphenylethyl)amino)propoxy]phenyl}acetic acid], the IC50 in experiment [1] came to 23 nM; in experiment [2], 0.121 µM.
The matching figures for `COc1cccc([C@H]2SC(c3ccc(Cl)cc3)=NN2C(=O)c2c(F)cc(F)cc2F)c1OC` [(2R)-5-(4-chlorophenyl)-2-(2,3-dimethoxyphenyl)-3-[(2,4,6-trifluorophenyl)carbonyl]-2,3-dihydro-1,3,4-thiadiazole]: 66 nM and 5 µM.
For `COc1cccc(C2SC(c3ccc(Cl)cc3)=NN2C(=O)c2c(F)cc(F)cc2F)c1OC` (racemic) [5-(4-chlorophenyl)-2-(2,3-dimethoxyphenyl)-3-[(2,4,6-trifluorophenyl)carbonyl]-2,3-dihydro-1,3,4-thiadiazole], the figures for the IC50 in experiment [1] and in experiment [2] were 300 nM and 9.8 µM, respectively. In experiment [3], this molecule registered a half-maximal effective concentration (EC50) of 300 nM.
On to `COc1ncccc1C1SC(c2ccc(F)cc2)=NN1C(=O)c1c(F)cc(F)cc1F` (centres undefined) [5-(4-fluorophenyl)-2-(2-methoxypyridin-3-yl)-3-[(2,4,6-trifluorophenyl)carbonyl]-2,3-dihydro-1,3,4-thiadiazole], for which the EC50 in experiment [3] came out at 210 nM; in experiment [4], 400 nM.

As usually defined, the IC50 is the point on the concentration scale where inhibition reaches its midpoint. By EC50 is commonly meant the concentration needed to bring the measured effect to its halfway point. A high value points to a need for much substance.
